Results from PubChem BioAssay (NCI).
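How tested: cells in 96-well plates exposed to compound for 48 hours at five concentrations. Abbreviation: GI50, concentration required for 50% inhibition of growth. At the TGI there is no net growth.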

Experiments:
Assay in all cases: growth of human tumour cells (NCI), 48 h
[1] = system: RPMI-8226 leukemia
[2] = system: NCI-H23 lung
[3] = system: SF-539 CNS
[4] = system: HOP-92 NSCLC
[5] = system: A549 NSCLC
[6] = system: TK-10 renal
[7] = system: NCI-H226 lung
[8] = system: T-47D breast
[9] = system: MOLT-4 leukemia

| Compound | TGI [1] [µM] | TGI [2] [µM] | TGI [3] [µM] | TGI [4] [µM] | TGI [5] [µM] | TGI [6] [µM] | TGI [7] [µM] | TGI [8] [µM] | GI50 [1] [µM] | GI50 [2] [µM] | GI50 [3] [µM] | GI50 [4] [µM] | GI50 [9] [µM] | TGI [9] [µM] | GI50 [5] [µM] | GI50 [6] [µM] | GI50 [7] [µM] | GI50 [8] [µM] |
| --- | --- | --- | --- | --- | --- | --- | --- | --- | --- | --- | --- | --- | --- | --- | --- | --- | --- | --- |
| CCCCCCCCCCCCNC(C)=O | 30.7 | 29.9 | 29.9 | 19.2 | > 100 | 31.6 | 35.9 | 66.3 | – | – | – | – | – | – | – | – | – | – |
| Nc1ccc2c(c1)C(=O)C(=O)c1c-2nc2ccccn12 | 4.71 | 3.05 | 3.03 | 4.21 | 3.54 | 29.3 | 3.75 | 4.13 | 1.8 | 0.576 | 1.66 | 2 | 1.96 | 4.88 | 1.62 | 15.3 | 1.72 | 1.76 |
| CCCCC[C@H](O)/C=C/[C@@H]1[C@@H](C/C=C\CCCC(=O)O)[C@@H](O)C[C@H]1O | > 100 | > 100 | > 100 | > 100 | > 100 | > 100 | > 100 | > 100 | > 100 | > 100 | > 100 | > 100 | > 100 | > 100 | > 100 | > 100 | > 100 | > 100 |
| Cc1c2cc[n+](C)cc2c(C)c2c1sc1ccccc12 | 5.68 | 2.29 | 2.01 | 9.75 | 3.46 | 68.5 | 2.11 | 3.67 | – | – | – | – | – | 5.57 | – | – | – | – |
| Cc1ccc(S(=O)(=O)OC2CCN(C)CC2)cc1 | 49.8 | > 100 | > 100 | 42.3 | > 100 | > 100 | – | 48.6 | – | – | – | – | – | 36.6 | – | – | – | – |
| CCNC(=O)[C@@H]1CCCN2C(=O)CC[C@H](NC(=O)[C@H](Cc3ccc(OP(=O)(O)O)cc3)NC(C)=O)C(=O)N12 | > 25 | > 25 | > 25 | – | > 25 | > 25 | > 25 | > 25 | > 25 | > 25 | > 25 | – | > 25 | > 25 | > 25 | > 25 | > 25 | > 25 |
| CCN(CC)CCOCC[C@H]1CC[C@H]2[C@@H]3[C@H](C)Cc4cc(OS(N)(=O)=O)ccc4[C@H]3CC[C@]12C | 2.67 | 2.92 | 1.87 | 3.5 | 5.58 | 3.34 | – | 2.94 | 0.704 | 1.06 | 0.654 | 1.39 | 1.53 | 4.31 | 1.8 | 1.3 | – | 0.277 |
| Cc1c(N2CCCC2)cc2c(c1NC(=O)c1ccccc1Cl)C(C)(C)CC2(C)C | 34.2 | 28.5 | 39.7 | 24 | 27.6 | 23.1 | 41.5 | 24.6 | – | – | – | – | – | – | – | – | – | – |
| COc1cc(NS(C)(=O)=O)ccc1Nc1c2ccc([N+](=O)[O-])cc2nc2c(C)cccc12 | 1.99 | 9.26 | 1.97 | 1.68 | 2.34 | 9.35 | 4.16 | 7.68 | 0.18 | 0.567 | 0.241 | 0.111 | 0.0409 | 4.37 | 0.0345 | 2.07 | 0.338 | 0.117 |
| OC(c1cccc(-n2ccc(C(F)(F)F)n2)c1)c1cnccc1NC1CCCCCC1 (stereo unspecified) | 4.51 | 3.2 | 3.1 | 2.53 | 3.56 | 3.49 | – | 4.23 | 1.57 | 1.74 | 1.69 | 1.21 | 2.16 | 4.83 | 1.81 | 1.77 | – | 1.77 |
| F | > 6870 | > 6870 | 4620 | > 6870 | > 6870 | > 6870 | > 6870 | 5670 | 3060 | 5260 | 1770 | 1850 | > 6870 | > 6870 | 2730 | 3400 | > 6870 | 2100 |
| C/C(=N\NC(=O)c1sc(=S)n(C)c1N)c1cc2ccccc2o1 | 49.4 | 58.8 | 25.9 | 25.4 | 20.2 | 32.7 | 40.4 | > 100 | 12.5 | 17.7 | 12.9 | 10.3 | 3.51 | 29.1 | 7.68 | 15.3 | 18.7 | 18.6 |
| CN(Cc1cnc2nc(N)nc(N)c2n1)c1ccc(C(=O)NC(CCC(=O)O)C(=O)O)cc1C(F)(F)F (stereo unspecified) | > 100 | > 100 | > 100 | > 100 | > 100 | > 100 | > 89 | > 100 | – | – | – | – | – | > 100 | – | – | – | – |
| N#Cc1c(-c2ccccc2)nc(SCC2CO2)nc1N1CCOCC1 (stereo unspecified) | 72.9 | > 100 | > 95.4 | 1.22 | > 100 | 99 | > 100 | 16.4 | 9.41 | 8.51 | 10.6 | 0.284 | 10.1 | > 74.6 | 21 | 4.88 | 11.5 | 2.74 |
| O=C[C@@H](CO)O[C@H](C=O)c1c[nH]c(=O)[nH]c1=O | 672 | 539 | 428 | 237 | 1020 | 355 | 552 | 606 | – | – | – | – | – | 605 | – | – | – | – |
| CCc1nc(N)nc(N)c1-c1ccc(NCCN)c([N+](=O)[O-])c1 | > 88.8 | > 100 | > 100 | > 100 | > 100 | > 100 | > 100 | > 100 | – | – | – | – | – | > 82.8 | – | – | – | – |
